Assay results from patent US8148391B2 (Cephalon, Inc., priority 2006, dated 2012).
Like-named read-outs stand apart in the source and are kept apart here. Each block holds one molecule with its values, some of them ahead of it.

Columns and labels:
[1] = target: T1, baculovirus-expressed ALK (Homo sapiens, UniProt Q9UM73); assay: ALK Kinase Assay (ELISA-type, time-resolved fluorescence); assay type: biochemical
T1 construct: host or cells: baculovirus expression system
How it was run: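 Wells were coated with phospholipase C-γ at 10 μg/mL in Tris-buffered saline. Adding 30 ng/ml enzyme started the reaction, which ran at 37° C for 15 minutes before Eu-N1 PT66 antibody detection. Percent inhibition versus log10 concentration gave IC50 by variable-slope fit.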

[2] = target: T2, c-Met (cytoplasmic domain) (Homo sapiens, UniProt P08581); assay: c-Met Kinase Assay (same methods as for ALK, with modifications); assay type: biochemical
T2 construct: 10 ng/mL c-Met (cytoplasmic domain, Invitrogen Corporation #PV3143); purchased Invitrogen Corporation PV3143
How it was run: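 Steps: coat wells with PLC-γ (10 μg/mL, Tris-buffered saline); add 10 ng/mL c-Met cytoplasmic domain to initiate; incubate 15 min, 37° C; detect phosphoproduct via Eu-N1 PT66 antibody.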

[3] = ALK kinase inhibition, 1 μM ATP (Km level), read-out: ALK Activity
[4] = c-Met kinase inhibition, 1 μM ATP (Km level), read-out: cMet Activity
[5] = ALK kinase inhibition, 1 μM ATP, read-out: ALK Activity
[6] = c-Met kinase inhibition, 1 μM ATP, read-out: cMet Activity
[7] = 1 μM ATP (Km level), 30 ng/ml ALK, 37° C., 15 minutes, read-out: ALK Activity (ALK kinase inhibition, IC50 class)
[8] = 1 μM ATP (Km level), 10 ng/mL c-Met, read-out: cMet Activity (c-Met kinase inhibition, IC50 class)
[9] = 1 μM ATP (Km level), read-out: ALK Activity (ALK Kinase Inhibition, IC50)
[10] = 1 μM ATP (Km level), read-out: cMet Activity (c-Met Kinase Inhibition, IC50)

T2 sequence (P08581 956-1390 limits assumed): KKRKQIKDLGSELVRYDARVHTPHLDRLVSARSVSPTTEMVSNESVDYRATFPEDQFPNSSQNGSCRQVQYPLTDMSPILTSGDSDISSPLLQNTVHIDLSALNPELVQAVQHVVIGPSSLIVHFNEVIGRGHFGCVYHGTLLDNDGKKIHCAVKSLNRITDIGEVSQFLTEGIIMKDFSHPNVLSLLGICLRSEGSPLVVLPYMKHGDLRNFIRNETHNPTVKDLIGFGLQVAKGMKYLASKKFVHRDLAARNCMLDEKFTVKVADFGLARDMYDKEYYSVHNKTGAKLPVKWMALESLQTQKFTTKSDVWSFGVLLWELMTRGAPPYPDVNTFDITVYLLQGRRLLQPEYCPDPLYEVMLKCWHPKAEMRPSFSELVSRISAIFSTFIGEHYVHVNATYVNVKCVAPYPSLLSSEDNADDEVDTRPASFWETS
T1 sequence (Q9UM73 19-1620): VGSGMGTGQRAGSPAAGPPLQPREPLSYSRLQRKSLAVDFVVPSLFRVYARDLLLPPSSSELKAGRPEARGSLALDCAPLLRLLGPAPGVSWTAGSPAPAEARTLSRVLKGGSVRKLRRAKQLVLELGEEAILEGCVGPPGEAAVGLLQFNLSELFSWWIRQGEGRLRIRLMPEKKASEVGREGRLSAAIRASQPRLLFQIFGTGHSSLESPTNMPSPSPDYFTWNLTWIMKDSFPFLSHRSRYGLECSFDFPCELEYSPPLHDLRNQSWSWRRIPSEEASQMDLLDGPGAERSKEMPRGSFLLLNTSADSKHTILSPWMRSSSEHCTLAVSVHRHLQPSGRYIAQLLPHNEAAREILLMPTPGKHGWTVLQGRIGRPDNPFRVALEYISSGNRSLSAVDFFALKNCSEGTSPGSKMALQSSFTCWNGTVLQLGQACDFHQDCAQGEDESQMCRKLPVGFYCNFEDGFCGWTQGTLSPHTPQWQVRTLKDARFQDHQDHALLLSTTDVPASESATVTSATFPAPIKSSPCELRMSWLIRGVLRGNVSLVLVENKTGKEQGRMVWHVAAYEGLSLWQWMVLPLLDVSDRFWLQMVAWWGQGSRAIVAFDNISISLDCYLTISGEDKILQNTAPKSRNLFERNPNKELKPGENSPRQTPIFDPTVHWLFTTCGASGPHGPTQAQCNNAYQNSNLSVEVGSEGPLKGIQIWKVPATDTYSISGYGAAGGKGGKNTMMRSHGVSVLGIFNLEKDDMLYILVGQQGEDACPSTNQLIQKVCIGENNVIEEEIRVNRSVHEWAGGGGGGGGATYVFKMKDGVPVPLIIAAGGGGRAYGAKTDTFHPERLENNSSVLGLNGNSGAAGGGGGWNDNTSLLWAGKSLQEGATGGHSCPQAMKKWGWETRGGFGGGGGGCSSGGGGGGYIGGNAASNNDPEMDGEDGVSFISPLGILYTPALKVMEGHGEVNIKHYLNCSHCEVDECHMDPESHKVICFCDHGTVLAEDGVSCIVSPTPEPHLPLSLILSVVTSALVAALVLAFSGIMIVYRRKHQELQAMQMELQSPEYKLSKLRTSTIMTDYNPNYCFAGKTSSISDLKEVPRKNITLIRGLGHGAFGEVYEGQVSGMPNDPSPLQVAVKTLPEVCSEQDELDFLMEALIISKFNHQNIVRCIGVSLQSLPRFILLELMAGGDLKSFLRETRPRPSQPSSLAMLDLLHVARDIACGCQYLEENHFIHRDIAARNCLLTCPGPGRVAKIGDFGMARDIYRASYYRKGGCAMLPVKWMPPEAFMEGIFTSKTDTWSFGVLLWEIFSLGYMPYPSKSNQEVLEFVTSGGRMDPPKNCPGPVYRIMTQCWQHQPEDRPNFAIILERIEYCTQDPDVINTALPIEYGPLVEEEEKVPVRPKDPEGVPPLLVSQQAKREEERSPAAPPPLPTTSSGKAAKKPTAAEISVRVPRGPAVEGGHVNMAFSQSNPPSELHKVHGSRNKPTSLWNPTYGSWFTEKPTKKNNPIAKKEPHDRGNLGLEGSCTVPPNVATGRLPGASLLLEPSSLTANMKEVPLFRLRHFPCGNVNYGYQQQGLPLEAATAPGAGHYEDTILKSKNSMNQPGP

Structure (SMILES): CNC(=O)c1cc(-c2cnn(C)c2)cc(F)c1Nc1nc(Nc2ccc3c(c2)NC(=O)CCC3)ncc1Cl [Example 1422, 2-[5-Chloro-2-(2-oxo-2,3,4,5-tetrahydro-1H-benzo[b]azepin-8-ylamino)-pyrimidin-4-ylamino]-3-fluoro-N-methyl-5-(1-methyl-1H-pyrazol-4-yl)-benzamide]
IC50 [1, 7]: 100 to 1000 nM
IC50 [2, 8]: < 100 nM

Structure (SMILES): CNC(=O)c1cc(C)cc(C)c1Nc1nc(Nc2ccc3c(c2)CCN(CCOC)CC3)ncc1Cl [Example 317, 2-{5-Chloro-2-[3-(2-methoxy-ethyl)-2,3,4,5-tetrahydro-1H-benzo[d]azepin-7-ylamino]-pyrimidin-4-ylamino}-3,5,N-trimethyl-benzamide]
IC50 [1, 3]: 100 to 1000 nM
IC50 [2, 4]: 100 to 1000 nM

Structure (SMILES): CNC(=O)c1ccccc1Nc1nc(Nc2ccc3c(c2)CCC(=O)NC3(C)C)ncc1Cl [Example 1827, 2-(5-Chloro-2-(1,1-dimethyl-3-oxo-2,3,4,5-tetrahydro-1H-benzo[c]azepin-7-ylamino)pyrimidin-4-ylamino)-N-methylbenzamide]
IC50 [1, 5]: < 100 nM
IC50 [2, 6]: < 100 nM

Structure (SMILES): Cc1cccc(C(=O)NCC#N)c1Nc1nc(Nc2ccc3c(c2)C(C)(C)CCC(=O)N3)ncc1Cl [Example 1038, 2-[5-Chloro-2-(5,5-dimethyl-2-oxo-2,3,4,5-tetrahydro-1H-benzo[b]azepin-7-ylamino)-pyrimidin-4-ylamino]-N-cyanomethyl-3-methyl-benzamide]
IC50 [1, 7]: < 100 nM
IC50 [2, 8]: 100 to 1000 nM

Structure (SMILES): CNC(=O)c1cccc(Cl)c1Nc1nc(Nc2ccc3c(c2)CCCC(=O)N3CCOC)ncc1Cl [Example 357, 3-Chloro-2-{5-chloro-2-[1-(2-methoxy-ethyl)-2-oxo-2,3,4,5-tetrahydro-1H-benzo[b]azepin-7-ylamino]-pyrimidin-4-ylamino}-N-methyl-benzamide]
IC50 [1, 3]: 1000 to 10000 nM
IC50 [2, 4]: < 100 nM

Structure (SMILES): CNC(=O)c1ccccc1Nc1nc(Nc2cc3c(cc2OC)N(C)C(=O)OCC3)ncc1C(F)(F)F [Example 1513, 2-[2-(3-Methoxy-5-methyl-6-oxo-5,6,8,9-tetrahydro-7-oxa-5-aza-benzocyclohepten-2-ylamino)-5-trifluoromethyl-pyrimidin-4-ylamino]-N-methyl-benzamide]
IC50 [1, 5]: < 100 nM
IC50 [2, 6]: 100 to 1000 nM

Structure (SMILES): CC1(C)CCC(=O)Nc2cc(Nc3ncc(Cl)c(Nc4ccccc4OCC#N)n3)ccc21 [Example 1578, {2-[5-Chloro-2-(5,5-dimethyl-2-oxo-2,3,4,5-tetrahydro-1H-benzo[b]azepin-8-ylamino)-pyrimidin-4-ylamino]-phenoxy}-acetonitrile]
IC50 [1, 5]: < 100 nM
IC50 [2, 6]: 100 to 1000 nM

Structure (SMILES): CN1C(=O)CCCc2ccc(Nc3ncc(Cl)c(N[C@@H]4CCCC[C@H]4NS(C)(=O)=O)n3)cc21 [Example 109, N-{(1R,2R)-2-[5-Chloro-2-(1-methyl-2-oxo-2,3,4,5-tetrahydro-1H-benzo[b]azepin-8-ylamino)-pyrimidin-4-ylamino]-cyclohexyl}-methanesulfonamide]
IC50 [1, 3]: < 100 nM
IC50 [2, 4]: 1000 to 10000 nM

Structure (SMILES): CCOC(=O)N1CCCOc2cc(Nc3ncc(Cl)c(Nc4ccccc4C(=O)NC)n3)ccc21 [Example 1419, 3-[5-Chloro-4-(2-methylcarbamoyl-phenylamino)-pyrimidin-2-ylamino]-7,8-dihydro-6H-5-oxa-9-aza-benzocycloheptene-9-carboxylic acid ethyl ester]
IC50 [1, 7]: < 100 nM
IC50 [2, 8]: < 100 nM

Structure (SMILES): CCN(CCO)Cc1cc(Nc2nc(Nc3ccc4c(c3)N(CC)CCN(CC)C4)ncc2Cl)ccc1F [Example 734, 2-({5-[5-Chloro-2-(1,4-diethyl-2,3,4,5-tetrahydro-1H-benzo[e][1,4]diazepin-8-ylamino)-pyrimidin-4-ylamino]-2-fluoro-benzyl}-ethyl-amino)-ethanol]
IC50 [1, 9]: < 100 nM
IC50 [2, 10]: > 10000 nM

Structure (SMILES): CNC(=O)c1ccccc1Nc1nc(Nc2ccc3c(c2)NCCNC3=O)ncc1Cl [Example 411, 2-[5-Chloro-2-(5-oxo-2,3,4,5-tetrahydro-1H-benzo[e][1,4]diazepin-8-ylamino)-pyrimidin-4-ylamino]-N-methylbenzamide]
IC50 [1, 3]: < 100 nM
IC50 [2, 4]: < 100 nM

Structure (SMILES): CCN1C(=O)CCCc2ccc(Nc3ncc(Br)c(Nc4c(F)cccc4C(=O)NC)n3)cc21 [Example 359, 2-[5-Bromo-2-(1-ethyl-2-oxo-2,3,4,5-tetrahydro-1H-benzo[b]azepin-8-ylamino)-pyrimidin-4-ylamino]-3-fluoro-N-methyl-benzamide]
IC50 [1, 3]: < 100 nM
IC50 [2, 4]: < 100 nM

Structure (SMILES): CCN1CC(O)(CO)COc2ccc(Nc3ncc(Cl)c(Nc4c(F)cccc4C(=O)NC)n3)cc21 (stereo not shown) [Example 1720, 2-[5-Chloro-2-(9-ethyl-7-hydroxy-7-hydroxymethyl-6,7,8,9-tetrahydro-5-oxa-9-aza-benzocyclohepten-2-ylamino)-pyrimidin-4-ylamino]-3-fluoro-N-methyl-benzamide]
IC50 [1, 5]: < 100 nM
IC50 [2, 6]: 100 to 1000 nM

Other lines, results leading:

IC50 [1, 3]: < 100 nM
IC50 [2, 4]: 100 to 1000 nM
Structure (SMILES): CN1CCCCc2cc(Nc3ncc(Cl)c(Nc4ccccc4NS(C)(=O)=O)n3)ccc21 [Example 106, N-{2-[5-Chloro-2-(1-methyl-2,3,4,5-tetrahydro-1H-benzo[b]azepin-7-ylamino)-pyrimidin-4-ylamino]-phenyl}-methanesulfonamide]

IC50 [1, 5]: 100 to 1000 nM
IC50 [2, 6]: > 10000 nM
Structure (SMILES): COc1cc2c(cc1Nc1ncc(Cl)c(Nc3ccccc3S(=O)(=O)N(C)C)n1)N(CC(=O)N(C)C)C(=O)CN(CC(=O)N(C)C)C2 [Example 1656, 2-{8-[5-Chloro-4-(2-dimethylsulfamoyl-phenylamino)-pyrimidin-2-ylamino]-1-dimethylcarbamoylmethyl-7-methoxy-2-oxo-1,2,3,5-tetrahydro-benzo[e][1,4]diazepin-4-yl}-N,N-dimethyl-acetamide]

IC50 [1, 7]: 1000 to 10000 nM
IC50 [2, 8]: 1000 to 10000 nM
Structure (SMILES): COCCN1CCc2ccc(Nc3ncc(Cl)c(Nc4c(F)cccc4OCC4CCOC4)n3)cc2CC1 (stereo not shown) [Example 1275, 5-Chloro-N(4)-[2-fluoro-6-(tetrahydro-furan-3-ylmethoxy)-phenyl]-N(2)-[3-(2-methoxy-ethyl)-2,3,4,5-tetrahydro-1H-3-benzazepin-7-yl]-pyrimidine-2,4-diamine]

IC50 [1, 9]: < 100 nM
IC50 [2, 10]: > 10000 nM
Structure (SMILES): COc1cc2c(cc1Nc1ncc(Cl)c(Nc3ccccc3S(=O)(=O)N3CC[C@H](N(C)C)C3)n1)CCN(CC(=O)N(C)C)CC2 [Example 846, 2-(7-{5-Chloro-4-[2-((S)-3-dimethylamino-pyrrolidine-1-sulfonyl)-phenylamino]-pyrimidin-2-ylamino}-8-methoxy-1,2,4,5-tetrahydro-benzo[d]azepin-3-yl)-N,N-dimethyl-acetamide]

IC50 [1, 7]: < 100 nM
IC50 [2, 8]: > 10000 nM
Structure (SMILES): CCN1C(=O)CCCc2c1ccc(Nc1ncc(Cl)c(Nc3ccc(N4CCN(C)CC4)cc3OC)n1)c2OC [Example 1311, 7-{5-Chloro-4-[2-methoxy-4-(4-methyl-piperazin-1-yl)-phenylamino]-pyrimidin-2-ylamino}-1-ethyl-6-methoxy-1,3,4,5-tetrahydro-benzo[b]azepin-2-one]

IC50 [1, 5]: < 100 nM
IC50 [2, 6]: 1000 to 10000 nM
Structure (SMILES): COc1cc2c(cc1Nc1ncc(Cl)c(Nc3ccccc3S(=O)(=O)N3CCC(O)C3)n1)CCN(CC(C)O)CC2 (stereo not shown) [Example 1552, 1-(2-{5-Chloro-2-[3-(2-hydroxy-propyl)-8-methoxy-2,3,4,5-tetrahydro-1H-3-benzazepin-7-ylamino]-pyrimidin-4-ylamino}-benzenesulfonyl)-pyrrolidin-3-ol]

IC50 [1, 7]: < 100 nM
IC50 [2, 8]: > 10000 nM
Structure (SMILES): COc1cc2c(cc1Nc1ncc(Cl)c(Nc3ccccc3S(=O)(=O)N(C)C)n1)CCC(N1CCOCC1)CC2 (stereo not shown) [Example 1049, 2-[5-Chloro-2-(3-methoxy-7-morpholin-4-yl-6,7,8,9-tetrahydro-5H-benzocyclohepten-2-ylamino)-pyrimidin-4-ylamino]-N,N-dimethyl-benzenesulfonamide]

IC50 [1, 3]: < 100 nM
IC50 [2, 4]: > 10000 nM
Structure (SMILES): COc1cc2c(cc1Nc1ncc(Cl)c(N[C@@H]3CCCC[C@H]3NS(C)(=O)=O)n1)CCN(C[C@H](O)C(F)(F)F)CC2 [Example 461, N-((1R,2R)-2-{5-Chloro-2-[8-methoxy-3-((S)-3,3,3-trifluoro-2-hydroxy-propyl)-2,3,4,5-tetrahydro-1H-benzo[d]azepin-7-ylamino]-pyrimidin-4-ylamino}-cyclohexyl)-methanesulfonamide]

IC50 [1, 9]: < 100 nM
IC50 [2, 10]: > 10000 nM
Structure (SMILES): COc1c(Nc2ncc(Cl)c(Nc3ccccc3S(=O)(=O)N(C)C)n2)ccc2c1CCCC(N1CCOCC1)C2 (stereo not shown) [Example 944, 2-[5-Chloro-2-(1-methoxy-6-morpholin-4-yl-6,7,8,9-tetrahydro-5H-benzocyclohepten-2-ylamino)-pyrimidin-4-ylamino]-N,N-dimethyl-benzenesulfonamide]

IC50 [1, 9]: < 100 nM
IC50 [2, 10]: 1000 to 10000 nM
Structure (SMILES): CNC(=O)c1cc(OC)ccc1Nc1nc(Nc2cc3c(cc2OC)CCN(CC(=O)N(C)C)CC3)ncc1Cl [Example 617, 2-[5-Chloro-2-(3-dimethylcarbamoylmethyl-8-methoxy-2,3,4,5-tetrahydro-1H-benzo[d]azepin-7-ylamino)-pyrimidin-4-ylamino]-5-methoxy-N-methyl-benzamide]
